Laboratory results: patent US20240308996A1, “PYRIDOPYRIDINES AND DERIVATIVES THEREOF AS SELECTIVE KINASE INHIBITORS” (University of Sharjah, priority 2023, published 2024)

Assays:
Type in all cases: cell-based
[1] = tested on: ACHN; assay: NCI-60 cell line panel: ACHN; conditions: Renal Cancer
Experimental: (§1) It was carried out at the NCI, Bethesda, MD, USA, utilizing their standard protocol.

[2] = tested on: SR; assay: NCI-60 cell line panel: SR; conditions: Leukemia
Experimental: as §1

[3] = tested on: OVCAR-4; assay: NCI-60 cell line panel: OVCAR-4; conditions: Ovarian Cancer
Experimental: as §1

[4] = tested on: 786-0; assay: NCI-60 cell line panel: 786-0; conditions: Renal Cancer
Experimental: as §1

[5] = tested on: TK-10; assay: NCI-60 cell line panel: TK-10; conditions: Renal Cancer
Experimental: as §1

[6] = tested on: UO-31; assay: NCI-60 cell line panel: UO-31; parameters: TGI: unit not given here; conditions: Renal Cancer
Experimental: as §1

[7] = tested on: HCT-116; assay: NCI-60 cell line panel: HCT-116; conditions: Colon Cancer
Experimental: as §1

[8] = tested on: NCI-H460; assay: NCI-60 cell line panel: NCI-H460; conditions: Non-Small Cell Lung Cancer
Experimental: as §1

[9] = tested on: SK-OV-3; assay: NCI-60 cell line panel: SK-OV-3; conditions: Ovarian Cancer
Experimental: as §1

[10] = tested on: LOX IMVI; assay: NCI-60 cell line panel: LOX IMVI; conditions: Melanoma
Experimental: as §1

[11] = tested on: A498; assay: NCI-60 cell line panel: A498; conditions: Renal Cancer
Experimental: as §1

[12] = tested on: MOLT-4; assay: NCI-60 cell line panel: MOLT-4; parameters: TGI: unit not given here; conditions: Leukemia
Experimental: as §1

[13] = tested on: MDA-MB-468; assay: NCI-60 cell line panel: MDA-MB-468; conditions: Breast Cancer
Experimental: as §1

[14] = tested on: EKVX; assay: NCI-60 cell line panel: EKVX; conditions: Non-Small Cell Lung Cancer
Experimental: as §1

[15] = tested on: HL-60(TB); assay: NCI-60 cell line panel: HL-60(TB); parameters: TGI: unit not given here; conditions: Leukemia
Experimental: as §1

[16] = tested on: SK-MEL-28; assay: NCI-60 cell line panel: SK-MEL-28; conditions: Melanoma
Experimental: as §1

[17] = tested on: MDA-MB-231/ATCC; assay: NCI-60 cell line panel: MDA-MB-231/ATCC; conditions: Breast Cancer
Experimental: as §1

[18] = tested on: A549/ATCC; assay: NCI-60 cell line panel: A549/ATCC; conditions: Non-Small Cell Lung Cancer
Experimental: as §1

[19] = tested on: COLO 205; assay: NCI-60 cell line panel: COLO 205; parameters: TGI: unit not given here; conditions: Colon Cancer
Experimental: as §1

[20] = tested on: UACC-62; assay: NCI-60 cell line panel: UACC-62; conditions: Melanoma
Experimental: as §1

[21] = tested on: hepatocellular carcinoma cell lines; assay: Screening against HCC cell lines
Experimental: The target compounds were tested against hepatocellular carcinoma cell lines. Compounds 1j. 13a. 13b. 13c. […] The mean inhibition percentage values are illustrated in Table 9.
Two HCC cell lines (Hep3B and HepG2) were used for screening the antiproliferative activity of the synthesized compounds. The cell lines were obtained from the European Collection of Cell Cultures (ECACC, UK) and maintained in Dulbecco's Modified Eagle Medium (DMEM: Sigma-Aldrich) supplemented with 10% fetal bovine serum (FBS) and 1% penicillin/streptomycin and incubated at 37° C. in a 5% CO2 air atmosphere. In addition, WI-38 normal cell line was used to investigate the safety of these compounds.
MTT assay was conducted to calculate the IC50 of the compounds following the reported procedure . Briefly, the cells were seeded in 96-well tissue culture plates with a density of 5×10^4 cells/well and incubated overnight at 37° C. in a 5% CO2 air atmosphere. After that, cells were treated with the newly synthesized compounds or sorafenib as a positive control. DMSO was used as a negative control. After 48 h, the media were aspirated, and replaced with media containing 0.5 mg/mL of MTT tetrazolium dye (Sigma-Aldrich) for 2 h at 37° C. Finally, the media were removed and 200 μL of DMSO was added to solubilize the formazan crystals. Absorbance was then measured at 570 nm using Varioskan Flash multimode plate reader (Thermo Scientific, Massachusetts, USA).

[22] = tested on: CAKI-1; assay: NCI-60 cell line panel: CAKI-1; parameters: TGI: unit not given here; conditions: Renal Cancer
Experimental: as §1

[23] = tested on: SK-MEL-2; assay: NCI-60 cell line panel: SK-MEL-2; parameters: TGI: unit not given here; conditions: Melanoma
Experimental: as §1

[24] = tested on: BT-549; assay: NCI-60 cell line panel: BT-549; conditions: Breast Cancer
Experimental: as §1

[25] = tested on: OVCAR-8; assay: NCI-60 cell line panel: OVCAR-8; conditions: Ovarian Cancer
Experimental: as §1

[26] = tested on: SNB-19; assay: NCI-60 cell line panel: SNB-19; conditions: CNS Cancer
Experimental: as §1

[27] = tested on: PC-3; assay: NCI-60 cell line panel: PC-3; conditions: Prostate Cancer
Experimental: as §1

[28] = tested on: KM12; assay: NCI-60 cell line panel: KM12; conditions: Colon Cancer
Experimental: as §1

[29] = tested on: T-47D; assay: NCI-60 cell line panel: T-47D; conditions: Breast Cancer
Experimental: as §1

[30] = tested on: NCI-H322M; assay: NCI-60 cell line panel: NCI-H322M; conditions: Non-Small Cell Lung Cancer
Experimental: as §1

[31] = tested on: SK-MEL-5; assay: NCI-60 cell line panel: SK-MEL-5; conditions: Melanoma
Experimental: as §1

[32] = total growth inhibition, in µM (unit assumed)

## CNC(=O)c1cc(-c2ccc(NC(=O)Nc3ccc(N4CCN(C)CC4)c(C(F)(F)F)c3)cc2)nc2cccnc12 [Compound 13b, N-Methyl-2-(4-(3-(4-(4-methylpiperazin-1-yl)-3-(trifluoromethyl)phenyl)ureido)phenyl)-1,5-naphthyridine-4-carboxamide]
[1]; Homo sapiens
  IC50: 15.5 µM
[1]; total growth inhibition
  TGI: 28.9 µM
[2]; Homo sapiens
  IC50: 9.97 µM
[2]; total growth inhibition
  TGI: 44.6 µM
[3]; Homo sapiens
  IC50: 15.7 µM
[3]; [32]
  TGI: 31.6
[4]; Homo sapiens
  IC50: 1.81 µM
[4]; total growth inhibition
  TGI: 3.52 µM
[5]; Homo sapiens
  IC50: 18.5 µM
[5]; total growth inhibition
  TGI: 33.2 µM
[6]; Homo sapiens
  IC50: 15.3 µM
[6]; total growth inhibition
  TGI: 29.2
[7]; total growth inhibition
  TGI: 75.6 µM
[7]; Homo sapiens
  IC50: 4.09 µM
[8]; Homo sapiens
  IC50: 3.19 µM
[8]; total growth inhibition
  TGI: 10.2 µM
[9]; Homo sapiens
  IC50: 18.5 µM
[9]; total growth inhibition
  TGI: 34.7 µM
[10]; Homo sapiens
  IC50: 0.66 µM
[10]; total growth inhibition
  TGI: 24.5 µM
[11]; Homo sapiens
  IC50: ≥ 100 µM
[11]; total growth inhibition
  TGI: 100 µM
[12]; Homo sapiens
  IC50: 2.79 µM
[12]; total growth inhibition
  TGI: 14.9
[13]; total growth inhibition
  TGI: 32.9 µM
[13]; Homo sapiens
  IC50: 14.8 µM
[14]; Homo sapiens
  IC50: 17.9 µM
[14]; [32]
  TGI: 33.9
[15]; Homo sapiens
  IC50: 16.2 µM
[15]; total growth inhibition
  TGI: 38.7
[16]; Homo sapiens
  IC50: 1.67 µM
[16]; total growth inhibition
  TGI: 3.11 µM
[17]; total growth inhibition
  TGI: 38.1 µM
[17]; Homo sapiens
  IC50: 17.5 µM
[18]; Homo sapiens
  IC50: 10.9 µM
[18]; total growth inhibition
  TGI: 24.3 µM
[19]; total growth inhibition
  TGI: 32.8
[19]; Homo sapiens
  IC50: 16.8 µM
[20]; Homo sapiens
  IC50: 18.4 µM
[20]; total growth inhibition
  TGI: 33.9 µM
[21]
  inhibition activity against hepatocellular carcinoma cell lines compared with sorafenib: higher inhibition activity than sorafenib
[22]; Homo sapiens
  IC50: 16.1 µM
[22]; total growth inhibition
  TGI: 29.6
[23]; Homo sapiens
  IC50: ≥ 100 µM
[23]; total growth inhibition
  TGI: 100
[24]; total growth inhibition
  TGI: 35.3 µM
[24]; Homo sapiens
  IC50: 16.5 µM
[25]; Homo sapiens
  IC50: 17.4 µM
[25]; [32]
  TGI: 35.4
[26]; total growth inhibition
  TGI: 33.2 µM
[26]; Homo sapiens
  IC50: 16.8 µM
[27]; Homo sapiens
  IC50: 15.1 µM
[27]; total growth inhibition
  TGI: 30.1 µM
[28]; total growth inhibition
  TGI: 43.3 µM
[28]; Homo sapiens
  IC50: 17.4 µM
[29]; total growth inhibition
  TGI: 43.4 µM
[29]; Homo sapiens, T47D
  IC50: 17 µM
[30]; Homo sapiens
  IC50: 15.6 µM
[30]; total growth inhibition
  TGI: 29.8 µM
[31]; Homo sapiens
  IC50: 17.5 µM
[31]; total growth inhibition
  TGI: 31.7 µM
